{"source": "patent US20240425463A1", "about": "“PROCESS FOR MANUFACTURING A DIPHENYLPHRAZINE DERIVATIVE” (ACTELION PHARMACEUTICALS LTD, priority 2021, published 2024)", "key": {"[1]": {"experiment": "Feasibility pK rat study (LAI potential of aqueous micro-suspensions, IM)", "format": "in vivo", "details": "50 mg/kg, aqueous micro-suspension 125 mg/mL; for long-acting release profile (yes/no): citrate buffer pH 5, FIG. 9", "procedure": "For this study, aqueous micro-suspensions of Selexipag, {4-[(5,6-diphenylpyrazin-2-yl)(propan-2-yl)amino]butoxy}acetic acid and calcium; {4-[(5,6-diphenylpyrazin-2-yl)(propan-2-yl)amino]butoxy}acetate were prepared. An overview of the design of the study can be found in Table 1.\nRelease profiles and mean AUC of the different formulations are depicted in FIG. 9."}, "[2]": {"experiment": "Solubility in water / aqueous media and dissolution rate", "format": "physicochemical", "details": "for solubility: water / aqueous media"}, "[3]": {"test_system": "pulmonary arterial hypertension", "details": "phase III, patients with pulmonary arterial hypertension; cited from earlier work"}, "[4]": {"experiment": "Physical stability of solid form on storage (7 days, humidity)", "format": "physicochemical"}, "[5]": {"experiment": "Hygroscopicity (change in mass between 0 and 90% RH)", "format": "physicochemical"}, "[6]": {"details": "7 days storage at 25° C./97% RH"}, "[7]": {"details": "7 days storage at 40° C./75% RH"}}, "note": "Where a name gives a salt, the structure may show the parent alone.", "data": [{"compound": "CC(C)N(CCCCOCC(=O)O)c1cnc(-c2ccccc2)c(-c2ccccc2)n1", "note": "[Ca-salt of ACT-333679, calcium; {4-[(5,6-diphenylpyrazin-2-yl)(propan-2-yl)amino]butoxy}acetate]", "values": [{"measurement": "duration of long-acting release profile", "setting": "[1]; FIG. 9", "value": "up to 336 hours"}, {"measurement": "time until which AUC increases", "setting": "[1]; FIG. 9", "value": "≤ 720", "unit": "h"}, {"measurement": "plasma concentrations compared to both other groups", "setting": "[1]; PVP K17 citrate buffer, FIG. 9", "value": "significant lower plasma concentrations"}, {"measurement": "solubility", "setting": "[2]; listed as calcium salt of selexipag metabolite", "value": "low solubility in water"}, {"measurement": "solubility", "setting": "[2]; {4-[(5,6-diphenylpyrazin-2-yl)(propan-2-yl)amino]butoxy}acetate", "value": "low solubility in aqueous media"}]}, {"compound": "CC(C)N(CCCCOCC(=O)O)c1cnc(-c2ccccc2)c(-c2ccccc2)n1", "note": "[Selexipag metabolite, 2-(4-((5,6-diphenylpyrazin-2-yl)(isopropyl)amino)butoxy)acetic acid]", "values": [{"measurement": "long-acting release profile (yes/no)", "setting": "[1]", "value": "did not demonstrate a long-acting release profile"}, {"measurement": "dissolution rate", "setting": "[2]", "value": "high"}, {"measurement": "solubility", "setting": "[2]", "value": "high"}]}, {"compound": "CC(C)N(CCCCOCC(=O)NS(C)(=O)=O)c1cnc(-c2ccccc2)c(-c2ccccc2)n1", "note": "[Selexipag, 2-{4-[(5,6-diphenylpyrazin-2-yl)(propan-2-yl)amino]butoxy}-N-(methanesulfonyl)acetamide]", "values": [{"measurement": "long-acting release profile (yes/no)", "setting": "[1]", "value": "did not demonstrate a long-acting release profile"}, {"measurement": "dissolution rate", "setting": "[2]", "value": "high"}, {"measurement": "solubility", "setting": "[2]", "value": "high"}, {"measurement": "risk of the primary composite end point of death or a complication related to pulmonary arterial hypertension vs placebo", "setting": "[3]", "value": "significantly lower"}]}, {"compound": "Calcium; {4-[(5,6-diphenylpyrazin-2-yl)(propan-2-yl)amino]butoxy}acetate [Amorphous Form]", "values": [{"measurement": "physical stability after storage", "setting": "[4]; [6]", "value": "physically stable"}, {"measurement": "physical stability after storage", "setting": "[4]; [7]", "value": "physically stable"}]}, {"compound": "calcium; {4-[(5,6-diphenylpyrazin-2-yl)(propan-2-yl)amino]butoxy}acetate [Form 2]", "values": [{"measurement": "physical stability after storage", "setting": "[4]; [6]", "value": "physically stable"}, {"measurement": "physical stability after storage", "setting": "[4]; [7]", "value": "physically stable"}, {"measurement": "hygroscopicity", "setting": "[5]", "value": "slightly hygroscopic"}, {"measurement": "reversible change in mass", "setting": "[5]; between 0 and 90% RH", "value": 2, "unit": "%"}]}]}
